Results published in ChEMBL document CHEMBL1201862, “PubChem BioAssay data set” (2004).
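Dose response: 5 concentrations. Exposure: 48 h. Format: 96-well plates. Endpoint: linear interpolation; highest concentration if not reached. Abbreviation: GI50, concentration required for 50% inhibition of growth.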 Activity calls are given as the source filed them. Rule as the data show it: active = GI50 up to about 1.1 µM and inactive = higher.

How the values were obtained:
Assay in all cases: inhibition of tumour cell growth, NCI panel, 48 h
[1] = tested on: A549
[2] = tested on: CAKI-1
[3] = tested on: MOLT-4
[4] = tested on: BT-549
[5] = tested on: NCI-H226
[6] = tested on: UO-31
[7] = tested on: SK-OV-3
[8] = tested on: SW-620
[9] = tested on: HT-29
[10] = tested on: SF-268
[11] = tested on: SNB-19
[12] = tested on: IGROV-1
[13] = tested on: DU-145
[14] = tested on: MCF7
[15] = tested on: HOP-62
[16] = tested on: OVCAR-5
[17] = tested on: COLO 205
[18] = tested on: SK-MEL-5
[19] = tested on: SN12C
[20] = tested on: CCRF-CEM
[21] = tested on: KM12
[22] = tested on: 786-0
[23] = tested on: NCI/ADR-RES
[24] = tested on: MDA-N
[25] = tested on: NCI-H23
[26] = tested on: OVCAR-8
[27] = tested on: MDA-MB-435
[28] = tested on: M14
[29] = tested on: SF-295
[30] = tested on: OVCAR-3
[31] = tested on: K562
[32] = tested on: HCC 2998
[33] = tested on: UACC-62
[34] = tested on: HCT-15
[35] = tested on: RXF 393
[36] = tested on: U-251
[37] = tested on: Malme-3M
[38] = tested on: PC-3
[39] = tested on: Hs-578T
[40] = tested on: TK-10
[41] = tested on: RPMI-8226
[42] = tested on: HCT-116
[43] = tested on: SK-MEL-2
[44] = tested on: EKVX
[45] = tested on: T47D
[46] = tested on: LOX IMVI
[47] = tested on: MDA-MB-231
[48] = tested on: SNB-75
[49] = tested on: NCI-H522
[50] = tested on: OVCAR-4
[51] = tested on: SK-MEL-28
[52] = tested on: SF-539
[53] = tested on: NCI-H460
[54] = tested on: ACHN
[55] = tested on: UACC-257
[56] = tested on: HOP-92
[57] = tested on: HL-60
[58] = tested on: A498

Measured: GI50

O=C1NC(=S)N/C1=C\c1cccs1
inactive: [1] > 100 µM | [2] > 100 µM | [3] > 100 µM | [4] > 100 µM | [5] > 100 µM | [6] > 100 µM | [7] > 100 µM | [8] > 100 µM | [9] > 100 µM | [10] > 100 µM | [11] > 100 µM | [12] > 100 µM | [13] > 100 µM | [14] > 100 µM | [15] > 100 µM | [16] > 100 µM | [17] > 100 µM | [18] > 100 µM | [19] > 100 µM | [20] > 100 µM | [21] > 100 µM | [22] > 100 µM | [23] > 100 µM | [24] > 100 µM | [25] > 100 µM | [26] > 100 µM | [27] > 100 µM | [28] > 100 µM | [29] > 100 µM | [30] > 100 µM | [31] > 100 µM | [32] > 100 µM | [33] > 100 µM | [35] > 100 µM | [36] > 100 µM | [37] > 100 µM | [38] > 100 µM | [39] > 100 µM | [40] > 100 µM | [41] > 100 µM | [42] > 100 µM | [43] > 100 µM | [44] > 100 µM | [45] 73.1 µM | [46] > 100 µM | [47] > 100 µM | [48] > 100 µM | [49] > 100 µM | [50] > 100 µM | [51] > 100 µM | [52] > 100 µM
> 100 µM: [34]

COc1ccc(CCn2ccc(C)n2)c(OC)c1
inactive: [1] > 100 µM | [2] > 100 µM | [3] > 100 µM | [4] > 100 µM | [6] 46.6 µM | [7] > 100 µM | [8] > 100 µM | [53] > 100 µM | [9] > 100 µM | [10] > 100 µM | [11] > 100 µM | [12] > 100 µM | [13] > 100 µM | [14] > 100 µM | [15] > 100 µM | [16] > 100 µM | [17] > 100 µM | [18] > 100 µM | [19] 46 µM | [20] > 100 µM | [54] > 100 µM | [21] > 100 µM | [23] 90.2 µM | [24] > 100 µM | [25] > 100 µM | [26] > 100 µM | [27] > 100 µM | [28] > 100 µM | [29] > 100 µM | [30] > 100 µM | [31] > 100 µM | [33] 90.8 µM | [35] > 100 µM | [36] > 100 µM | [37] > 100 µM | [38] > 100 µM | [39] > 100 µM | [40] > 100 µM | [55] > 100 µM | [42] > 100 µM | [44] 47.2 µM | [45] 68.9 µM | [46] > 100 µM | [47] > 100 µM | [48] 34 µM | [50] > 100 µM | [51] > 100 µM | [52] > 100 µM
> 100 µM: [34]

CC(C)(C)OC(=O)NCC(c1c[nH]c2ccc(Br)cc12)c1c[nH]c2ccc(Br)cc12
7.73 µM: [34]
inactive: [1] 5.18 µM | [2] 11 µM | [4] 12.4 µM | [5] 16.6 µM | [6] 7.11 µM | [8] 6.64 µM | [9] 3.34 µM | [10] 8.43 µM | [11] 11.2 µM | [12] 4.07 µM | [13] 11.7 µM | [14] 5.41 µM | [15] 12.7 µM | [16] 7.48 µM | [17] 5 µM | [56] 3.76 µM | [18] 6.38 µM | [19] 5.13 µM | [20] 5.12 µM | [54] 5.96 µM | [21] 4.16 µM | [22] 3.85 µM | [23] 6.82 µM | [24] 8.63 µM | [25] 4.33 µM | [26] 13.4 µM | [57] 11.7 µM | [27] 11.7 µM | [28] 3.56 µM | [29] 9.89 µM | [30] 4.54 µM | [31] 15.9 µM | [32] 5.18 µM | [33] 11.1 µM | [35] 11.6 µM | [36] 6.43 µM | [37] 18.3 µM | [38] 3.55 µM | [39] 19.3 µM | [40] 12.6 µM | [41] > 100 µM | [55] 13 µM | [42] 4.14 µM | [43] 8.04 µM | [44] 4.52 µM | [45] 10 µM | [46] 7.03 µM | [47] 10.5 µM | [58] 14.5 µM | [49] 10.7 µM | [50] 7.36 µM | [51] 16.3 µM | [52] 14.4 µM

NCCCNCCS
74.3 µM: [34]
inactive: [2] 51.8 µM | [4] > 100 µM | [5] > 100 µM | [53] > 100 µM | [12] > 100 µM | [13] > 100 µM | [14] > 100 µM | [15] > 100 µM | [54] > 100 µM | [23] > 100 µM | [24] > 100 µM | [25] > 100 µM | [27] 65.5 µM | [30] > 100 µM | [37] > 100 µM | [38] > 100 µM | [39] > 100 µM | [42] > 100 µM | [45] > 100 µM | [46] > 100 µM | [47] > 100 µM | [48] > 100 µM | [58] > 100 µM | [49] 91.8 µM | [51] > 100 µM | [52] > 100 µM
